We go through 9 compounds from ChEMBL document CHEMBL1133224, “New ratiometric fluorescent calcium indicators with moderately attenuated binding affinities” (Bioorg Med Chem Lett, 2000).

A word on the Kd: it is a measure of binding affinity in units of concentration.

Molecules are shown by their SMILES.

This assay can be described thus: Calcium binding affinity (fluorescent calcium probe) expressed in terms of dissociation constant.
`O=C(O)CN(CC(=O)O)c1ccc(F)cc1OCCOc1cc(-c2cc3ccc(C(=O)O)cc3[nH]2)ccc1N(CC(=O)O)CC(=O)O`: the Kd stood at 470 nM.

Take `O=C(O)CN(CC(=O)O)c1ccc(Cl)cc1OCCOc1cc2cc(-c3ncc(C(=O)O)o3)oc2cc1N(CC(=O)O)CC(=O)O`: the Kd amounted to 400 nM.

With `Cc1ccc(N(CC(=O)O)CC(=O)O)c(OCCOc2cc3cc(-c4ncc(C(=O)O)o4)oc3cc2N(CC(=O)O)CC(=O)O)c1`, the dissociation constant Kd was found to be 140 nM.

In the case of `O=C(O)CN(CC(=O)O)c1ccc(F)cc1OCCOc1cc2cc(-c3ncc(C(=O)O)o3)oc2cc1N(CC(=O)O)CC(=O)O`, the Kd amounted to 400 nM.

With `O=C(O)CN(CC(=O)O)c1ccc(F)cc1OCCOc1cc(-c2nc3cc(C(F)(F)F)ccc3s2)ccc1N(CC(=O)O)CC(=O)O`, the dissociation constant Kd came to 1400 nM.

Take `O=C(O)CN(CC(=O)O)c1cc2oc(-c3ncc(C(=O)O)o3)cc2cc1OCCOc1c(F)cccc1N(CC(=O)O)CC(=O)O`: the dissociation constant Kd was determined as 5300 nM.

As for `Cc1ccc(N(CC(=O)O)CC(=O)O)c(OCCOc2cc(-c3nc4cc(C(F)(F)F)ccc4s3)ccc2N(CC(=O)O)CC(=O)O)c1`, the Kd was determined as 660 nM.

For the compound `Cc1ccc(N(CC(=O)O)CC(=O)O)c(OCCOc2cc(-c3cc4ccc(C(=O)O)cc4[nH]3)ccc2N(CC(=O)O)CC(=O)O)c1`, the Kd was 230 nM.

As to `O=C(O)CN(CC(=O)O)c1cc(F)ccc1OCCOc1cc2cc(-c3ncc(C(=O)O)o3)oc2cc1N(CC(=O)O)CC(=O)O`, the Kd was found to be 770 nM.
